Test results published in patent US7135467B2, “HIV integrase inhibitors” (priority 2003, dated 2006).

Experiments:
[1] = molecular target: T1, HIV-integrase (recombinant integrase) (Human immunodeficiency virus type 1 group M subtype B, UniProt P12497); assay: HIV-Integrase Inhibition Activity (SPA bead strand-transfer assay); type: biochemical; conditions: recombinant integrase on biotin labeled substrate DNA/SPA beads, P33 labeled target DNA; read-out: Activity (IC50 against HIV-integrase)
T1 construct: Recombinant integrase (0.26 ng) was incubated with the beads
Procedure, shortened: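 Recombinant integrase (0.26 ng) was bound for 90 min at 37° C to biotin-labelled substrate DNA (5 pmole) on streptavidin SPA beads. After washing, inhibitors and 0.1 fmol P33-labelled target DNA were added, and the reaction was stopped with 10 mM EDTA. Integration was measured as CPM.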

SMILES	IC50 [1] [nM]	melting point
Cn1c(N2CCCCS2(=O)=O)nc(C(=O)Nc2ccc(F)cc2)c(O)c1=O [Compound 50, 2-(1,1-Dioxo-1λ^6-[1,2]thiazinan-2-yl)-5-hydroxy-1-methyl-6-oxo-1,6-dihydro-pyrimidine-4-carboxylic acid (4-fluoro-phenyl)-amide]	≥ 1000	285 to 291 °C (dec.)
Cn1c(N2CCOCC2)nc(C(=O)NCc2ccc(F)cc2)c(O)c1=O [Compound 52, N-[(4-fluorophenyl)methyl]-1,6-dihydro-5-hydroxy-1-methyl-2-(4-morpholinyl)-6-oxo-4-pyrimidinecarboxamide]	3 to 100	197 to 199 °C
Cn1c(N2CCOCC2)nc(C(=O)NCc2ccc(Cl)c(Cl)c2)c(O)c1=O [Compound 53, N-[(3,4-dichlorophenyl)methyl]-1,6-dihydro-5-hydroxy-1-methyl-2-(4-morpholinyl)-6-oxo-4-pyrimidinecarboxamide]	3 to 100	100 to 102 °C
Cc1cc(CNC(=O)c2nc(N3CCOCC3)n(C)c(=O)c2O)ccc1F [Compound 54, N-[(4-fluoro-3-methylphenyl)methyl]-1,6-dihydro-5-hydroxy-1-methyl-2-(4-morpholinyl)-6-oxo-4-pyrimidinecarboxamide]	3 to 100	182 to 185 °C
Cc1ccc(CNC(=O)c2nc(N3CCOCC3)n(C)c(=O)c2O)cc1F [Compound 55, N-[(3-fluoro-4-methylphenyl)methyl]-1,6-dihydro-5-hydroxy-1-methyl-2-(4-morpholinyl)-6-oxo-4-pyrimidinecarboxamide]	3 to 100	166 to 167 °C
Cn1c(N2CCOCC2)nc(C(=O)NCc2ccc(F)c(Cl)c2)c(O)c1=O [Compound 56, N-[(3-chloro-4-fluorophenyl)methyl]-1,6-dihydro-5-hydroxy-1-methyl-2-(4-morpholinyl)-6-oxo-4-pyrimidinecarboxamide]	3 to 100	170 to 171 °C
Cc1ccc(CNC(=O)c2nc(N3CCOCC3)n(C)c(=O)c2O)cc1C [Compound 57, N-[(3,4-dimethylphenyl)methyl]-1,6-dihydro-5-hydroxy-1-methyl-2-(4-morpholinyl)-6-oxo-4-pyrimidinecarboxamide]	3 to 100	164 to 166 °C
Cc1ncn(-c2nc(C(=O)NCc3ccc(Cl)c(Cl)c3)c(O)c(=O)n2C)n1 [Compound 59, N-[(3,4-dichlorophenyl)methyl]-1,6-dihydro-5-hydroxy-1-methyl-2-(3-methyl-1H-1,2,4-triazol-1-yl)-6-oxo-4-pyrimidinecarboxamide]	3 to 100	188 to 189 °C (dec.)
Cc1ncn(-c2nc(C(=O)NCc3ccc(F)c(C)c3)c(O)c(=O)n2C)n1 [Compound 60, N-[(4-fluoro-3-methylphenyl)methyl]-1,6-dihydro-5-hydroxy-1-methyl-2-(3-methyl-1H-1,2,4-triazol-1-yl)-6-oxo-4-pyrimidinecarboxamide]	3 to 100	204 to 205 °C
Cc1ncnn1-c1nc(C(=O)NCc2ccc(F)cc2)c(O)c(=O)n1C [Compound 61, N-[(4-fluorophenyl)methyl]-1,6-dihydro-5-hydroxy-1-methyl-2-(5-methyl-1H-1,2,4-triazol-1-yl)-6-oxo-4-pyrimidinecarboxamide]	100 to 1000	230 °C
Cc1cc(CNC(=O)c2nc(N3CCN(C(=O)N4CCNC4=O)CC3)n(C)c(=O)c2O)ccc1F [Compound 86, N-[(4-fluoro-3-methylphenyl)methyl]-1,6-dihydro-5-hydroxy-1-methyl-6-oxo-2-[4-[(2-oxo-1-imidazolidinyl)carbonyl]-1-piperazinyl]-4-pyrimidinecarboxamide]	3 to 100	–
CNC(=O)N1CCN(c2nc(C(=O)NCc3ccc(F)cc3)c(O)c(=O)n2C)CC1 [Compound 87, N-[(4-fluorophenyl)methyl]-1,6-dihydro-5-hydroxy-1-methyl-2-[4-[(methylamino)carbonyl]-1-piperazinyl]-6-oxo-4-pyrimidinecarboxamide]	3 to 100	–
CNC(=O)N1CCN(c2nc(C(=O)NCc3ccc(F)c(C)c3)c(O)c(=O)n2C)CC1 [Compound 88, N-[(4-fluoro-3-methylphenyl)methyl]-1,6-dihydro-5-hydroxy-1-methyl-2-[4-[(methylamino)carbonyl]-1-piperazinyl]-6-oxo-4-pyrimidinecarboxamide]	3 to 100	–
Cn1c(N2CCCC2)nc(C(=O)NCc2ccc(F)cc2)c(O)c1=O [Compound 91, N-[(4-fluorophenyl)methyl]-1,6-dihydro-5-hydroxy-1-methyl-6-oxo-2-(1-pyrrolidinyl)-4-pyrimidinecarboxamide]	3 to 100	–
Cn1c(N2CCC2)nc(C(=O)NCc2ccc(F)cc2)c(O)c1=O [Compound 92, 2-(1-azetidinyl)-N-[(4-fluorophenyl)methyl]-1,6-dihydro-5-hydroxy-1-methyl-6-oxo-4-pyrimidinecarboxamide]	3 to 100	–
Cc1cc(CNC(=O)c2nc(N3CCC3)n(C)c(=O)c2O)ccc1F [Compound 93, 2-(1-azetidinyl)-N-[(4-fluoro-3-methylphenyl)methyl]-1,6-dihydro-5-hydroxy-1-methyl-6-oxo-4-pyrimidinecarboxamide]	3 to 100	–
Cn1c(N2CCC(C(N)=O)CC2)nc(C(=O)NCc2ccc(F)cc2)c(O)c1=O [Compound 94, 2-[4-(aminocarbonyl)-1-piperidinyl]-N-[(4-fluorophenyl)methyl]-1,6-dihydro-5-hydroxy-1-methyl-6-oxo-4-pyrimidinecarboxamide]	3 to 100	–
Cn1c(N2CCC[C@H]2C(N)=O)nc(C(=O)NCc2ccc(F)cc2)c(O)c1=O [Compound 95, 2-[(2S)-2-(aminocarbonyl)-1-pyrrolidinyl]-N-[(4-fluorophenyl)methyl]-1,6-dihydro-5-hydroxy-1-methyl-6-oxo-4-pyrimidinecarboxamide]	3 to 100	–
Cn1c(N2CCCCC2CO)nc(C(=O)NCc2ccc(F)cc2)c(O)c1=O (centres unmarked) [Compound 96, 4-pyrimidineN-[(4-fluorophenyl)methyl]-1,6-dihydro-5-hydroxy-2-[2-(hydroxymethyl)-1-piperidinyl]-1-methyl-6-oxo-carboxamide]	100 to 1000	–
Cc1cc(CNC(=O)c2nc(N3CCCCC3CO)n(C)c(=O)c2O)ccc1F (centres unmarked) [Compound 97, N-[(4-fluoro-3-methylphenyl)methyl]-1,6-dihydro-5-hydroxy-2-[2-(hydroxymethyl)-1-piperidinyl]-1-methyl-6-oxo-4-pyrimidinecarboxamide]	3 to 100	–
Cn1c(N2CCCCC2CCO)nc(C(=O)NCc2ccc(F)cc2)c(O)c1=O (centres unmarked) [Compound 98, N-[(4-fluorophenyl)methyl]-1,6-dihydro-5-hydroxy-2-[2-(2-hydroxyethyl)-1-piperidinyl]-1-methyl-6-oxo-4-pyrimidinecarboxamide]	3 to 100	–
Cc1cc(CNC(=O)c2nc(N3CCCCC3CCO)n(C)c(=O)c2O)ccc1F (centres unmarked) [Compound 99, N-[(4-fluoro-3-methylphenyl)methyl]-1,6-dihydro-5-hydroxy-2-[2-(2-hydroxyethyl)-1-piperidinyl]-1-methyl-6-oxo-4-pyrimidinecarboxamide]	3 to 100	–
Cn1c(-n2ncccc2=O)nc(C(=O)NCc2ccc(F)cc2)c(O)c1=O [Compound 100, N-[(4-fluorophenyl)methyl]-1,6-dihydro-5-hydroxy-1-methyl-6-oxo-2-(6-oxo-1(6H)-pyridazinyl)-4-pyrimidinecarboxamide]	100 to 1000	–
Cc1cc(CNC(=O)c2nc(-n3ncccc3=O)n(C)c(=O)c2O)ccc1F [Compound 101, N-[(4-fluoro-3-methylphenyl)methyl]-1,6-dihydro-5-hydroxy-1-methyl-6-oxo-2-(6-oxo-1(6H)-pyridazinyl)-4-pyrimidinecarboxamide]	3 to 100	–
Cn1c(N2Cc3ccc(F)cc3C2=O)nc(C(=O)NCc2ccc(F)cc2)c(O)c1=O [Compound 102, 2-(6-fluoro-1,3-dihydro-1-oxo-2H-isoindol-2-yl)-N-[(4-fluorophenyl)methyl]-1,6-dihydro-5-hydroxy-1-methyl-6-oxo-4-pyrimidinecarboxamide]	3 to 100	–
